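The compound was tested at five concentrations on cells cultured in 96-well plates, with a 48-hour exposure period. GI50: concentration for 50% inhibition of growth.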 Activity calls are given as the source filed them. No stated cut-off is given here; in the data, active = GI50 up to about 1.1 µM and inactive = higher. Square brackets hold non-standard residues; d marks the D form. Peptide text beside a SMILES is read from it. * marks the point of attachment. Tyr(3-Br) = N[C@@H](Cc1ccc(O)c(Br)c1)C(=O)O; Boc = CC(C)(C)OC(=O)*

Some test systems named below: BT-549; DU-145; EKVX; HL-60; HOP-92; HT-29; Hs-578T; IGROV-1; KM12; MCF7; MDA-MB-435; NCI-H460; NCI/ADR-RES; SF-295; SN12C; SNB-75; TK-10; NCI-H522; U-251.
Common to all, as to assay: inhibition of tumour cell growth, NCI panel, 48 h

On to `COC(=O)[C@H](Cc1ccc(O)c(Br)c1)NC(=O)[C@H](Cc1ccc(O)cc1)NC(=O)OC(C)(C)C` (Boc-Tyr-[Tyr(3-Br)]-OMe), for which the GI50 is 35.2 µM (inactive) in the test with BT-549; 61.9 µM (inactive) in the test on DU-145; > 100 µM (inactive) with EKVX; 32.4 µM (inactive) in the test with HL-60; 28.6 µM (inactive) in the test on HOP-92; 37.7 µM (inactive) with HT-29. The GI50 with Hs-578T was > 100 µM (inactive); in the test with IGROV-1 it was 37 µM (inactive); in the test with KM12, 40.6 µM (inactive); in the test with MCF7, 31.3 µM (inactive); with MDA-MB-435 it was 23 µM (inactive); with NCI-H460, 19.2 µM (inactive). Further, the GI50 was > 100 µM (inactive) in the test on NCI/ADR-RES; > 100 µM (inactive) in the test with SF-295; 78.5 µM (inactive) with SN12C; 92 µM (inactive) in the test on SNB-75; > 100 µM (inactive) with TK-10.

Regarding `CCOC(=O)c1c[nH]c(C(=O)C=[N+]=[N-])c1C1CCN(CC)C1=S` (configuration not stated), the GI50 in the test with BT-549, with DU-145, in the test with EKVX, with HOP-92, with HT-29 and in the test on Hs-578T was > 100 µM (inactive) in each case. The GI50 in the test on IGROV-1 is > 100 µM (inactive); in the test on KM12, > 100 µM (inactive); with MCF7, > 100 µM (inactive); with MDA-MB-435, > 100 µM (inactive); in the test with NCI-H460 it was 93.3 µM (inactive); in the test on NCI-H522, > 100 µM (inactive). Moreover, the GI50 in the test on NCI/ADR-RES, with SF-295, in the test with SNB-75, in the test on TK-10 and in the test on U-251 was > 100 µM (inactive) in each case.

On to `COc1ccc(C2=C(Cl)c3cc(OC)c(OC)cc3C2=O)cc1OC`, for which the GI50 was 16.1 µM (inactive) in the test with BT-549; 18.7 µM (inactive) in the test on DU-145; 20.1 µM (inactive) with EKVX; 1.8 µM (inactive) in the test on HL-60; 1.8 µM (inactive) in the test with HOP-92; 5.38 µM (inactive) in the test on HT-29. The GI50 with Hs-578T is 30 µM (inactive); with IGROV-1, 17.5 µM (inactive); in the test on KM12 it was 17.4 µM (inactive); in the test with MCF7, 13.1 µM (inactive); in the test with MDA-MB-435, 15.9 µM (inactive); with NCI-H522, 12.6 µM (inactive). For the same compound, the GI50 with NCI/ADR-RES was 21.9 µM (inactive); with SF-295, > 100 µM (inactive); with SN12C, 18 µM (inactive); in the test on SNB-75, 61 µM (inactive); in the test on TK-10 it was 13 µM (inactive).

As for `C/C(=N\Nc1nc2ccccc2o1)c1ccc2ccccc2n1`, the GI50 in the test on BT-549 is 20.7 µM (inactive); in the test with DU-145 it was 4.41 µM (inactive); with EKVX it was 0.458 µM (active); in the test on HL-60, 2.33 µM (inactive); with HT-29 it was 1.89 µM (inactive); in the test with Hs-578T, 27.4 µM (inactive). For the same compound, the GI50 in the test with IGROV-1 was 0.356 µM (active); in the test on KM12 it was 3.48 µM (inactive); with MCF7, 6.12 µM (inactive); in the test with MDA-MB-435 it was 6.35 µM (inactive); in the test with NCI-H460, 3.7 µM (inactive); in the test with NCI-H522, 1.94 µM (inactive). The GI50 in the test with NCI/ADR-RES was 3.22 µM (inactive); with SF-295 it was 3.72 µM (inactive); with SN12C it was 3.42 µM (inactive); in the test with SNB-75, 11.6 µM (inactive); with TK-10, 6.92 µM (inactive); with U-251 it was 3.21 µM (inactive).

Turning to `CCCC(=O)OCC1(CO)C/C(=C/CC(C(C)C)C(C)C)C(=O)O1` (configuration not stated), the GI50 with BT-549 was > 100 µM (inactive); in the test on DU-145 it was > 100 µM (inactive); in the test with EKVX, > 100 µM (inactive); in the test on HOP-92 it was 97.7 µM (inactive); in the test with HT-29 it was > 100 µM (inactive); in the test on Hs-578T, > 100 µM (inactive). Moreover, the GI50 in the test on IGROV-1 was > 100 µM (inactive); in the test with KM12 it was 44.5 µM (inactive); with MCF7, > 100 µM (inactive); with MDA-MB-435, > 100 µM (inactive); in the test with NCI-H460, > 100 µM (inactive); in the test on NCI-H522, 38.7 µM (inactive). Besides, the GI50 with NCI/ADR-RES, in the test on SF-295, with SN12C, with SNB-75, in the test on TK-10 and with U-251 was > 100 µM (inactive) in each case.

Turning to `COC(=O)c1cc(C)n(CN(Cc2ccccc2)Cn2nc(C(=O)OC)cc2C)n1`, the GI50 in the test with BT-549 is > 100 µM (inactive); with DU-145 it was > 62.1 µM (inactive); in the test with EKVX it was 66.5 µM (inactive); with HOP-92, > 73.5 µM (inactive); in the test on HT-29, > 52.7 µM (inactive); in the test on Hs-578T, > 100 µM (inactive). The GI50 with IGROV-1 is > 66.1 µM (inactive); in the test on KM12, > 100 µM (inactive); in the test on MCF7 it was > 66.5 µM (inactive); with MDA-MB-435, > 100 µM (inactive); in the test on NCI-H460 it was > 100 µM (inactive); in the test with NCI-H522 it was > 100 µM (inactive). Besides, the GI50 in the test on NCI/ADR-RES is > 100 µM (inactive); in the test on SF-295, > 79.8 µM (inactive); with SN12C, > 100 µM (inactive); in the test on SNB-75, > 27.2 µM (inactive); in the test with TK-10, > 100 µM (inactive); with U-251, > 100 µM (inactive).

Take `COc1ccccc1/C=C1\SC(=S)N(/C=C2\C(=O)Oc3ccccc3C2=O)C1=O`: the GI50 in the test with BT-549 was 21.1 µM (inactive); in the test on DU-145 it was 33.3 µM (inactive); in the test on EKVX it was 24.1 µM (inactive); in the test with HOP-92, 18.4 µM (inactive); in the test with HT-29 it was 38.7 µM (inactive); in the test with Hs-578T, 33.5 µM (inactive). In addition, the GI50 in the test on IGROV-1 was 36.6 µM (inactive); in the test with KM12, 34.3 µM (inactive); in the test with MCF7, 35.5 µM (inactive); in the test on MDA-MB-435 it was 25.6 µM (inactive); in the test with NCI-H522 it was 26.5 µM (inactive); in the test with NCI/ADR-RES it was 29.3 µM (inactive). Further, the GI50 in the test with SNB-75 was 22 µM (inactive); with TK-10, 28.1 µM (inactive); in the test on U-251 it was 34.3 µM (inactive).

With `C/C(Cc1ccc2c(c1)OCO2)=N\NC(=O)C(C)Sc1nnc(SC(C)C(=O)N/N=C(\C)Cc2ccc3c(c2)OCO3)s1` (configuration not stated), the GI50 with BT-549 is > 100 µM (inactive); in the test on DU-145 it was > 100 µM (inactive); in the test on EKVX, 81.3 µM (inactive); in the test on HL-60 it was > 100 µM (inactive); in the test with HOP-92, 61.1 µM (inactive); with HT-29, > 100 µM (inactive). The GI50 was > 100 µM (inactive) in the test with Hs-578T; > 100 µM (inactive) with IGROV-1; > 100 µM (inactive) in the test with KM12; 24.1 µM (inactive) in the test on MCF7; > 100 µM (inactive) in the test on MDA-MB-435; > 100 µM (inactive) in the test with NCI-H460. The GI50 was > 100 µM (inactive) in the test with NCI/ADR-RES; > 100 µM (inactive) in the test with SF-295; 83.9 µM (inactive) in the test on SNB-75; > 100 µM (inactive) with TK-10; > 100 µM (inactive) in the test on U-251.

As for `COc1cc2c(cc1OCCCNC(=O)c1cc3ccccc3[nH]1)N=C[C@@H]1CCCN1C2=O`, the GI50 was 0.0736 µM (active) in the test with BT-549; 0.223 µM (active) in the test on DU-145; 1.02 µM (active) in the test with EKVX; 7.43 µM (inactive) with HOP-92; 0.296 µM (active) in the test with HT-29; 0.23 µM (active) with Hs-578T. For the same compound, the GI50 in the test with IGROV-1 is 0.277 µM (active); with KM12 it was 0.241 µM (active); with MCF7, 0.258 µM (active); with MDA-MB-435, 0.243 µM (active); in the test on NCI-H460, 0.675 µM (active); in the test with NCI-H522, 0.0141 µM (active). Also, the GI50 with NCI/ADR-RES was 2.04 µM (inactive); in the test on SF-295, 0.405 µM (active); with SN12C it was 0.409 µM (active); in the test on SNB-75, 0.263 µM (active); in the test with TK-10 it was 0.359 µM (active); in the test on U-251, 0.148 µM (active).

Consider `Cc1cn(C2CC(n3cc(Cn4cc(Br)c(=O)[nH]c4=O)nn3)C(CO)O2)c(=O)[nH]c1=O` (configuration not stated), for which the GI50 was > 100 µM (inactive) with BT-549; > 100 µM (inactive) with DU-145; > 100 µM (inactive) in the test with EKVX; 0.0395 µM (active) in the test with HL-60; 20.4 µM (inactive) in the test on HOP-92; > 100 µM (inactive) in the test with Hs-578T. Also, the GI50 is 80 µM (inactive) in the test with IGROV-1; 47.3 µM (inactive) with KM12; > 100 µM (inactive) in the test on MCF7; 42.1 µM (inactive) in the test on MDA-MB-435; 68.2 µM (inactive) in the test with NCI/ADR-RES; 41.9 µM (inactive) with SF-295. Besides, the GI50 with SN12C was > 100 µM (inactive); in the test on SNB-75, 60.5 µM (inactive); in the test with TK-10, > 100 µM (inactive); in the test with U-251 it was 39.1 µM (inactive).

With `COc1cc(S(=O)(=O)N/N=C/C=C/c2ccccc2)c(OC)cc1NC(C)=O`, the GI50 in the test with BT-549 is 42.1 µM (inactive); in the test with DU-145, 31.8 µM (inactive); in the test on EKVX, 5.14 µM (inactive); in the test on HL-60, 33 µM (inactive); in the test on HOP-92 it was 30.3 µM (inactive); with HT-29, 9.62 µM (inactive). Besides, the GI50 is 26.4 µM (inactive) in the test on Hs-578T; 17.8 µM (inactive) in the test on IGROV-1; 42.3 µM (inactive) in the test with KM12; 52.2 µM (inactive) in the test on MCF7; 38.8 µM (inactive) with MDA-MB-435; 25.2 µM (inactive) in the test with NCI-H522. Besides, the GI50 is 9.59 µM (inactive) in the test on NCI/ADR-RES, > 100 µM (inactive) with SF-295, 51.9 µM (inactive) in the test on SN12C and > 100 µM (inactive) in the test on SNB-75.

The values are drawn from ChEMBL document CHEMBL1201862, “PubChem BioAssay data set” (2004).
